Data reported in patent US20100105864A1, “PROPHYLACTIC OR THERAPEUTIC AGENT FOR DIARRHEA” (priority 2007, published 2010).
Marks after values point to notes of the source that are not given here.

Assays:
rat large intestine loop = test: Fluid absorption in rat large intestine loop method (PGE2-stimulated); format: in vivo, rats; settings: injected into loop 30 minutes after PGE2 i.p.; measured after 1 hour
Experimental: The cecum and large intestine were extirpated from the abdomen of each of male SD (IGS) rats under pentobarbital anesthesia, and the site 5 cm away from the area just under the cecum was ligated to form a large intestine loop Immediately after the loop had been formed, PGE2 (4 μg/ml/kg, SIGMA) was intraperitoneally administered, and after 30 minutes, a medicament, which had been dissolved in 2 ml of Tyrode's solution (NaCl: 136.9 mM, KCl: 2.7 mM, CaCl2.2H2O: 1.8 mM, MgCl2.6H2O: 1.04 mM, NaH2PO4.2H2O: 0.04 mM, NaH2PO4.2H2O: 0.04 mM, glucose: 5.55 mM, NaHCO3: 11.9 mM), was injected into the prepared loop (the medicament solution was adjusted so that the pH would be 6.5 to 7.5). As a control, Tyrode's solution free of any medicament (vehicle) was administered. After 1 hour, the loop weight, the loop weight after solution removal, and the loop area were measured to calculate a solution weight per unit area remaining in the loop.
The remaining solution amount per unit area was calculated with the following equation:
Remaining solution amount per unit area(g/cm^2)=(Loop weight−Loop weight after solution removal)/Loop area.
The fluid absorption was evaluated by calculating an inhibitory rate from the following equation:
Inhibitory rate(%)=100−(Remaining solution amount per unit area under drug administration−Remaining solution amount per unit area in base(average))/(Remaining solution amount per unit area under vehicle administration(average)−Remaining solution amount per unit area in base(average))×100.
(Base=case where no stimulation is given (no treatment with PGE2))

Balb/c mice = test: Anticancer agent (5-FU)-induced diarrhea model; format: in vivo
Experimental: To each of Balb/c mice, an anticancer agent was administered to induce diarrhea, and γ-Glu-Val-Gly (hereinafter, referred to as “γEVG”) was studied for its inhibitory effect on diarrhea. To each of 6-week-old Balb/c mice fed with a low protein nutrient diet (4% casein diet) for 1 week, 5-FU (1 mg/animal/day) was intraperitoneally administered for consecutive 3 days. The diarrhea developed around Day 5 after the third administration of the anticancer agent, and the diarrhea appeared in all cases on Day 7. The presence or absence of diarrhea was determined based on the presence or absence of the stool in the tail head area. As the statistical test, a chi-square (χ^2) test for the control group (presence or absence of diarrhea) was employed, and p<0.05 was regarded as significant.
Each administration of 0.01% γEVG was started in free water intake at the same time as the first administration of the anticancer agent, and continued until completion of the experiment.
To each of Balb/c mice, an anticancer agent was administered to induce diarrhea, and a calcium receptor activator (hereinafter, referred to as “CaSR agonist”) was studied for its inhibitory effect on diarrhea. To each of 6-week-old Balb/c mice fed with a low protein nutrient diet (4% casein diet) for 1 week, 5-FU (1 mg/animal/day) was intraperitoneally administered for consecutive 3 days. The diarrhea developed around Day 5 after the third administration of the anticancer agent, and the diarrhea appeared in all cases on Day 7. The presence or absence of diarrhea was determined based on the presence or absence of the stool in the tail head area. As the statistical test, a chi-square (χ^2) test for the control group (presence or absence of diarrhea) was employed, and p<0.05 was regarded as significant.
The administration of the CaSR agonist was started in free water intake at the same time as the administration of the low protein nutrient diet, and continued until completion of the experiment.

## N[C@@H](CCC(=O)N[C@@H](CS)C(=O)NCC(=O)O)C(=O)O [γ-Glu-Cys-Gly]
Rat large intestine loop
  fluid absorption (inhibitory rate from remaining solution amount per unit area): promoted fluid absorption
Balb/c mice; 0.5% administration group, free water intake from start of low protein diet, control all 9/9 with diarrhea
  mice that did not exhibit the diarrhea symptom: 2 out of 5
Balb/c mice; 0.5% in free water intake from start of low protein diet, control 9/9, p < 0.05 chi-square
  Ratio of individuals that developed diarrhea: 3/5*
